Laboratory results reported in publication PMC8998978, “Toward a Treatment of Cancer: Design and In Vitro/In Vivo Evaluation of Uncharged Pyrazoline Derivatives as a Series of Novel SHP2 Inhibitors” (International Journal of Molecular Sciences, 2022).

Legend:
HCT116 cells = test: Cell viability assay (SRB); format: cell-based, human
Excerpt: Human colon cancer cell line HCT116, hepatoma cell lines HepG2 and BEL-7402, lung adenocarcinoma cell lines NCI-H1975 and 95-D, pancreatic cancer cell line Panc-1, breast cancer cell line MDA-MB-231, NSCLC cell line NCI-H1299, ovarian cancer cell line SK-OV-3, leukemia cell line K562, glioma cell line U87, colon epithelial cell line NCM460 and umbilical vein endothelial cell line HUVEC were purchased from the Institute of Biochemistry and Cell Biology, Chinese Academy of Sciences (Shanghai, China). HCT116 cell line was cultured in McCoy’s 5A medium (Hyclone, Logan, UT, USA). HepG2, 95-D, Panc-1, MDA-MB-231, BEL-7402, SK-OV-3, U87 and NCM460 cell lines were cultured in DMEM-High glucose medium (Hyclone, Logan, UT, USA). NCI-H1975, NCI-H1299 and HUVEC cell lines were cultured in RPMI 1640 medium (Hyclone, Logan, UT, USA). K562 cell line was cultured in IMDM medium (Hyclone, Logan, UT, USA). […]
The inhibition rate of cell viability was detected by 3-(4,5-dimethyl-2-thiazolyl)-2,5-diphenyl-2-H-tetrazolium bromide (MTT, Solarbio, Beijing, China) or Sulforhodamine B (SRB, Sigma-Aldrich, St. Louis, MO, USA) assay. […] The absorbance at 570 nm was measured in a multimode reader (Berthold Technologies, Germany). […] Finally, Tris–HCl solution was added, and the absorbance at 515 nm was detected in a multimode reader (Berthold Technologies, Germany).

HCT116 cells xenograft = test: Anti-tumor activity in vivo, HCT116 xenograft model; design: species or system BALB/c-nude mice
Description: Male BALB/c-nude mice (Jinan Pengyue Experimental Animal Breeding Co., Ltd., Jinan, China), 5 weeks of age, were used. The mice were housed in a specific pathogen-free room with temperature controlled (22 ± 2 °C), humidity (55 ± 10%) and a light/dark cycle of 12 h, providing sterile food and water. The HCT116 cells xenograft model was conducted, and 1 × 10^7 HCT116 cells were subcutaneously injected into the right armpit of mice. The tumor volume of mice was measured every three days to evaluate the tumor growth. When the tumor volume reached about 100 mm^3, the mice were randomly divided into four groups (n = 6), and treated with vehicle (0.5% CMC-Na solution) or 4o (25, 50 mg/kg) by gavage once a day for 13 consecutive days. A total of 25 mg/kg 5-FU was used as a positive control. The body weight of mice was measured every three days. The length (L) and width (W) of tumors were measured by electronic caliper every three days. The volume (V) was calculated as follows: V = (L × W^2)/2. When the tumor volume reached about 1000 mm^3, the tumors were excised. Immunohistochemical analysis were used to evaluate the related protein levels.

In the case of `CCOc1ccc(Oc2ccc(C3=NN(C4=NC(=O)CS4)C(c4cc(O)c(O)c(Br)c4Br)C3)cc2)cc1` (stereo not shown) [Compound 4o, 2-(5-(2,3-dibromo-4,5-dihydroxyphenyl)-3-(4-(4-ethoxyphenoxy)phenyl)-4,5-dihydro-1H-pyrazol-1-yl)thiazol-4(5H)-one], the “Growth inhibition of HCT116 cells” value (HCT116 cells; 24, 48 and 72 h) is reported as “time- and dose-dependent manner”, the IC50 (HCT116 cells; Homo sapiens, HCT-116, HCT116, 72 h) is reported as 2.64 ± 0.17 µM and the Tumor inhibition rate (HCT116 cells xenograft; 4o 25 mg/kg by gavage once daily, 13 days) is reported as 58.8%. For the same compound, the Tumor inhibition rate (HCT116 cells xenograft; 4o 50 mg/kg by gavage once daily, 13 days) was 67.2%, the “Effect on body weight of tumor-bearing mice” value (HCT116 cells xenograft; 4o 25, 50 mg/kg or 5-FU 25 mg/kg, 13 days) was “did not have any obvious effect on the body weight” and the “Expression of Ki67 and p-Erk in tumors (immunohistochemistry)” value (HCT116 cells xenograft; 4o 25, 50 mg/kg, 13 days) was “significantly decreased”. The Tumor weight (HCT116 cells xenograft; 4o 25, 50 mg/kg, after 13 days, versus vehicle) was “much lighter”.
